According to patent publication US20050228041A1, “Protective and therapeutic uses for tocotrienols” (priority 2003, published 2005):

Tests used:
[1] = tested on: primary neurons; test: Cellular glutathione (GSH) in glutamate-treated primary neurons (HPLC-coulometric); format: cell-based, rat; settings: glutamate 10 mM; α-tocotrienol 100 nM or BL15 2.5 μM
Protocol: First, we tested for the involvement of 12-LOX in the execution of glutamate-induced death in our model. We started by using the 12-LOX specific inhibitor baicalein or BL15. Referring to FIG. 3, HT4 neurons (A) were either treated or not with a-tocotrienol (250 nM) or […] (2.5 μM, 12-lipoxygenase inhibitor) for 5 min and then challenged with glutamate (10 mM). Cell viability was determined using propidium iodide (PI) exclusion flow cytometry assay. PI−=live; PI+=dead. Rat primary immature cortical neurons (B-D) were either treated or not with α-tocotrienol (100 nM) or BL15 (2.5 μM) for 5 min and challenged either with glutamate (10 mM; B); L-homocysteic acid (1 mM; C) or buthionine sulfoximine (0.15 mM; BSO; D) for 24 h. Arachidonic acid, 50 μM for 24h. BL15, Baicalein 5,6,7-trihydroxy-flavone. […] B-E: †, lower compared to the corresponding control non-treated group; *, higher compared to the corresponding toxin-treated group. P<0.05.
Glutathione assay. Glutathione (GSH) was detected using a HPLC-coulometric electrode array detector (Coularray Detector—model 5600 with 12 channels; ESA Inc., Chelmsford, Mass.). […] Glutathione was detected at channels set at following potentials: I) 600 mV, II) 700 mV; and II) 800 mV. Signals from channel set at 800 mV were used for quantification (Sen et al., 2002).

[2] = tested on: HT4 neurons; test: Glutamate-induced death of HT4 neurons (propidium iodide exclusion flow cytometry, cell counts); format: cell-based, mouse
Protocol: Referring to FIG. 1, primary rat immature cortical neurons (A-C) or HT4 (D) were either treated or not with α-tocotrienol (as indicated) for 5 min and challenged with either glutamate (10 mM; A); L-homocysteic acid (1 mM; B); or buthionine sulfoximine (0.15 mM; BSO) for 24 h. […] Cells were counted at 12, 24 and 36 h after glutamate challenge.
First, we tested for the involvement of 12-LOX in the execution of glutamate-induced death in our model. We started by using the 12-LOX specific inhibitor baicalein or BL15. Referring to FIG. 3, HT4 neurons (A) were either treated or not with a-tocotrienol (250 nM) or […] (2.5 μM, 12-lipoxygenase inhibitor) for 5 min and then challenged with glutamate (10 mM). Cell viability was determined using propidium iodide (PI) exclusion flow cytometry assay. PI−=live; PI+=dead. Rat primary immature cortical neurons (B-D) were either treated or not with α-tocotrienol (100 nM) or BL15 (2.5 μM) for 5 min and challenged either with glutamate (10 mM; B); L-homocysteic acid (1 mM; C) or buthionine sulfoximine (0.15 mM; BSO; D) for 24 h. Arachidonic acid, 50 μM for 24h. BL15, Baicalein 5,6,7-trihydroxy-flavone.
Cell culture. Mouse hippocampal HT4 cells, were grown in Dulbecco's Modified Eagle Medium supplemented with 10% fetal calf serum, penicillin (100 U/ml) and streptomycin (100 μg/ml) at 37° C. in a humidified atmosphere containing 95% air and 5% CO2. HT4 cells were provided by Dr. D. E. Koshland Jr. (University of California at Berkeley) (Sen et al., 2000). Primary cortical neurons. Cells were isolated from the cerebral cortex of rat feti (Sprague Dawley; day 17 of gestation) or mouse feti (C57BL/6 mice, day 14 of gestation) as described (Murphy et al., 1990). For 12-LOX knockout studies, neurons were isolated from the feti of B6.129S2-Alox15^tm1Fun (Jackson Laboratory, […].). After isolation from the brain, cells were counted and seeded in culture plates at a density of 2-3×10^6 cells per 35 mm plate (Murphy et al., 1990). Cells were grown in Minimal Essential Medium (MEM) supplemented with 10% heat-inactivated fetal bovine serum, 40 μM cystine and antibiotics (100 μg/ml streptomycin, 100 units/ml penicillin, 0.25 μg/ml amphotericin). Cultures were maintained at 37° C. in 5% CO2 and 95% air in a humidified incubator. All experiments were carried out 24 h after plating.
Treatment with neurotoxic agents. Immediately before experiments, culture media was replaced with fresh medium supplemented with serum and antibiotics. Glutamate (10 mM) was added to the media as aqueous solution (Han et al., 1997a; Sen et al., 2000; Tirosh et al., 2000). […] Other agents used to induce death in neuronal cells have been described in the pertinent figure legends.
Vitamin E treatment. Stock solutions (10^3X of working concentration) of α-tocotrienol was prepared in ethanol. […]
Determination of cell viability. Viability of HT4 cells was determined using propidium iodide exclusion assay using the flow cytometer as described by us previously (Sen et al., 2000; Tirosh et al., 2000). Because primary neuronal cultures tend to aggregate during flow cytometry, the viability of these cells was assessed by measuring lactate dehydrogenase (LDH) leakage (Han et al., 1997a) from cells to media 24 h following glutamate treatment using in vitro toxicology assay kit from Sigma Chemical Co. (St. Louis, Mo., USA). […]

With `CC(C)=CCC/C(C)=C/CC/C(C)=C/CC[C@]1(C)CCc2c(C)c(O)c(C)c(C)c2O1` [α-tocotrienol] the “cellular glutathione (GSH) in protected glutamate-treated primary neurons” value [1] was “loss of cellular glutathione”, the “protection against glutamate-induced toxicity / loss of cell viability of HT4” value ([2]; glutamate 10 mM, tocotrienol 100 nM (nM levels) 5 min before) was “protect against loss of cell viability” and the “proliferation / growth rate of glutamate-treated HT4 cells” value ([2]; tocotrienol 100 nM (nM levels), cells counted 12, 24 and 36 h after glutamate) was “preserve the normal growth rate”.
